Measured values from PubChem BioAssay (NCI).
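How tested: cells in 96-well plates exposed to compound for 48 hours at five concentrations. GI50 is the concentration that inhibits growth by half. TGI: concentration producing complete growth inhibition.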

Columns and labels:
Assay in all cases: NCI tumour cell line growth inhibition, 48 h
SN12C renal = test system: SN12C renal
TK-10 renal = test system: TK-10 renal
RPMI-8226 leukemia = test system: RPMI-8226 leukemia
HS 578T breast = test system: HS 578T breast
HT29 colon = test system: HT29 colon
A498 renal = test system: A498 renal
PC-3 prostate = test system: PC-3 prostate
RXF 393 renal = test system: RXF 393 renal
MDA-MB-231 breast = test system: MDA-MB-231 breast
IGROV1 ovarian = test system: IGROV1 ovarian

Compound | GI50 (SN12C renal) | TGI (SN12C renal) | GI50 (TK-10 renal) | TGI (TK-10 renal) | GI50 (RPMI-8226 leukemia) | TGI (RPMI-8226 leukemia) | GI50 (HS 578T breast) | TGI (HS 578T breast) | GI50 (HT29 colon) | TGI (HT29 colon) | GI50 (A498 renal) | TGI (A498 renal) | GI50 (PC-3 prostate) | TGI (PC-3 prostate) | GI50 (RXF 393 renal) | TGI (RXF 393 renal) | GI50 (MDA-MB-231 breast) | TGI (MDA-MB-231 breast) | GI50 (IGROV1 ovarian) | TGI (IGROV1 ovarian)
COc1ccc2c(-c3ccnc(Nc4cccc(OC(F)(F)F)c4)n3)cnn2n1 | 1750 nM | > 18300 nM | 4050 nM | 12200 nM | 1770 nM | > 21000 nM | 835 nM | > 9950 nM | 912 nM | 3060 nM | 999 nM | 10600 nM | 987 nM | > 25000 nM | 1740 nM | 6660 nM | 3630 nM | > 25000 nM | 2390 nM | > 12500 nM
Nc1n[nH]c2ccc([C@@H]3Nc4cc5c(cc4[C@H]4C6CCC(C6)[C@@H]34)C(=O)NC5)cc12 (some centres not stated) | 473 nM | > 100000 nM | 70100 nM | > 100000 nM |  |  | 484 nM | > 100000 nM | 393 nM | > 100000 nM | 130 nM | 737 nM | 471 nM | > 100000 nM | 273 nM |  | 436 nM |  | 417 nM | > 100000 nM
CCN1C(=O)N(CC)C2C1NN=c1s/c(=C\c3ccc(F)cc3)c(=O)n12 (configuration not stated) | 615 nM | > 100000 nM | 10500 nM | > 100000 nM | 326 nM | > 63200 nM | 183 nM | > 100000 nM | 61.4 nM | > 100000 nM | 39.4 nM | 330 nM | 217 nM | > 100000 nM | 162 nM | 622 nM | 406 nM | > 80200 nM | 584 nM | > 100000 nM
C[C@@H]1Cc2cc(O)ccc2[C@H]2CC[C@]3(C)/C(=C/COCCN(C)C)CC[C@H]3[C@H]12 (tested in a mixture with another compound) | 111 nM | 789 nM | 209 nM | 461 nM | 239 nM | 694 nM | 82.2 nM | 436 nM | 368 nM | 1200 nM | 534 nM | 1590 nM | 233 nM | 1300 nM | 105 nM | 316 nM | 833 nM | 3150 nM | 379 nM | 1210 nM
C=CCc1cc(Nc2c3ccc(Cl)cc3nc3ccc(OC)cc23)cc(CN(CC)CC)c1O | 2030 nM | 12100 nM | 1970 nM | 11100 nM | 348 nM | 2380 nM | 3040 nM | 14300 nM | 1750 nM | 10100 nM | 1680 nM | 5840 nM | 1040 nM | 4730 nM | 1230 nM | 4660 nM | 2350 nM | 10800 nM | 2690 nM | 21100 nM
C[C@@H]1O[C@@H](O[C@@H]2[C@@H](O)[C@H](OCCc3ccc(O)c(O)c3)O[C@H](CO)[C@H]2OC(=O)/C=C/c2ccc(O)c(O)c2)[C@H](O)[C@H](OC2OC[C@](O)(CO)[C@H]2O)[C@H]1O (some centres not stated) | > 100000 nM | > 100000 nM | > 100000 nM | > 100000 nM | 34900 nM | > 100000 nM | > 100000 nM | > 100000 nM |  |  |  |  | 7410 nM | > 100000 nM | 72000 nM | > 100000 nM | > 100000 nM | > 100000 nM | > 100000 nM | > 100000 nM
